Consider eleven compounds from ChEMBL document CHEMBL1201862, “PubChem BioAssay data set” (2004).

Test in all cases: growth of human tumour cells (NCI), 48 h
In assay [1] the test system is A498.
In assay [2] the test system is COLO 205.
Assay [3] relates to HOP-62.
The subject of assay [4] is IGROV-1.
Assay [5] relates to K562.
The test system of assay [6] is M14.
Assay [7] has as its system MDA-MB-435.
Assay [8] deals with MDA-N.
Assay [9] deals with NCI-H460.
Assay [10] concerns NCI-H522.
Assay [11] deals with OVCAR-3.
Assay [12] relates to OVCAR-5.
Assay [13] deals with RPMI-8226.
Assay [14] relates to SK-MEL-2.
Assay [15] deals with SN12C.
The test system of assay [16] is SNB-75.
For assay [17], the system named is SW-620.
In assay [18] the test system is T47D.
In assay [19] the test system is U-251.
Assay [20] concerns BT-549.

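Each compound was tested at five concentrations against cells in 96-well plates for 48 hours. Here, GI50 denotes the concentration required for 50% inhibition of growth.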 Active and inactive are the calls of the source. No stated cut-off is given here; in the data, active = GI50 up to about 1.1 µM and inactive = higher.

On to `O=[N+]([O-])C(=C1Nc2ccccc2N1)C(Cl)=C(Cl)Cl`, for which the GI50 in [1] is > 100 µM (inactive); in assay [2], > 100 µM (inactive); in assay [3] it was > 100 µM (inactive); in assay [4] it was > 100 µM (inactive); in assay [5] it was 81.7 µM (inactive); in assay [6] it was 62.5 µM (inactive). Moreover, the GI50 is 88.1 µM (inactive) in assay [7]; > 100 µM (inactive) in [8]; > 100 µM (inactive) in [9]; > 100 µM (inactive) in [10]; 18.6 µM (inactive) in assay [11]; > 100 µM (inactive) in assay [12]. The GI50 is 70 µM (inactive) in assay [13]; > 100 µM (inactive) in [14]; > 100 µM (inactive) in assay [15]; < 0.01 µM (active) in assay [16]; > 100 µM (inactive) in [17]; 31.1 µM (inactive) in assay [18]. Further, in [19], the GI50 was > 100 µM (inactive).

Regarding `N#Cc1ccc(Oc2nc3ccccc3nc2-c2ccccc2)cc1`, the GI50 in [1], in [20], in assay [2], in assay [3], in assay [4] and in [5] was > 100 µM (inactive) throughout. The GI50 in [7], in assay [8], in assay [9], in [10], in assay [11] and in [12] was > 100 µM (inactive) in each case. Further, the GI50 in [13], in [14], in assay [15], in assay [17] and in assay [19] was > 100 µM (inactive) in each case.

For `COc1ccc(C2CC(c3ccccc3)=Nc3c(-c4ccccc4)nnn32)cc1` (configuration not stated), the GI50 was > 100 µM (inactive) in assay [1]; > 100 µM (inactive) in [2]; 96.2 µM (inactive) in [3]; > 100 µM (inactive) in assay [4]; > 100 µM (inactive) in assay [5]; > 100 µM (inactive) in assay [6]. The GI50 was 77.8 µM (inactive) in [7]; > 100 µM (inactive) in [8]; > 100 µM (inactive) in assay [9]; 8.22 µM (inactive) in assay [10]; 54.7 µM (inactive) in [11]; > 100 µM (inactive) in [12]. Moreover, the GI50 in [13] was 12.8 µM (inactive); in assay [14], 44.4 µM (inactive); in [15], > 100 µM (inactive); in [17], > 100 µM (inactive); in assay [18], 10 µM (inactive); in assay [19] it was 9.84 µM (inactive).

Take `N#Cc1nsnc1-c1nc(-c2nsnc2C#N)nc(-c2nsnc2C#N)n1`: the GI50 in assay [1], in [20], in assay [2], in [3], in assay [4] and in [5] was > 100 µM (inactive) throughout. Besides, the GI50 in assay [7], in [8], in assay [9], in [10], in assay [11] and in assay [12] was > 100 µM (inactive) in each case. Moreover, the GI50 in [13], in assay [14], in assay [15], in assay [16], in [17] and in [19] was > 100 µM (inactive) each time.

For `C[C@]12CCC(N3CCCC3)CC1=CC[C@@H]1[C@@H]2CC[C@]2(C)C(O)[C@H](n3ccnc3)C[C@@H]12` (some centres not stated), the GI50 in assay [1] was > 100 µM (inactive); in assay [2], 30.3 µM (inactive); in assay [4] it was 59.8 µM (inactive); in assay [5] it was 27.2 µM (inactive); in assay [6] it was 15.7 µM (inactive); in assay [7] it was 36.6 µM (inactive). The GI50 in [8] was 44.2 µM (inactive); in assay [9], 42.6 µM (inactive); in assay [10], 49.9 µM (inactive); in assay [11], 32.3 µM (inactive); in [12] it was 53.8 µM (inactive); in assay [13], 30.8 µM (inactive). Further, the GI50 was 41.9 µM (inactive) in [14]; 46.5 µM (inactive) in assay [15]; > 10 µM (inactive) in assay [16]; 45.7 µM (inactive) in assay [17]; 75.9 µM (inactive) in assay [19].

Regarding `CCOC(=O)/C(ON)=C(/CC/C(C(=O)OC)=C(\ON)C(=O)OCC)C(=O)OC`, the GI50 in [1], in assay [2], in [3], in assay [4], in assay [5] and in [6] was > 100 µM (inactive) in each case. Besides, the GI50 in [9], in assay [10], in [11], in assay [12], in assay [13] and in assay [14] was > 100 µM (inactive) each time. Further, the GI50 in [15], in assay [16], in [17] and in assay [19] was > 100 µM (inactive) each time.

Take `O=C1OC(OC/C(Br)=C(/Br)COC2OC(=O)C(Cl)=C2Cl)C(Cl)=C1Cl` (configuration not stated): the GI50 is 21.9 µM (inactive) in [1]; 4.29 µM (inactive) in assay [2]; 11.7 µM (inactive) in assay [3]; 13.7 µM (inactive) in assay [4]; 2.07 µM (inactive) in assay [5]; 6.79 µM (inactive) in [6]. Also, the GI50 was 9.71 µM (inactive) in [7]; 8.04 µM (inactive) in assay [8]; 19.6 µM (inactive) in [9]; 2.14 µM (inactive) in assay [10]; 4.88 µM (inactive) in [11]; 14.1 µM (inactive) in assay [12]. Besides, the GI50 is 1.68 µM (inactive) in assay [13]; 26.2 µM (inactive) in [14]; 9.1 µM (inactive) in assay [15]; 18.7 µM (inactive) in [16]; 2.69 µM (inactive) in assay [17]; 9.95 µM (inactive) in assay [18]. In assay [19], the GI50 is 7.6 µM (inactive).

In the case of `Cc1n[nH]c(=O)n1/N=C/c1ccncc1`, the GI50 in [1], in assay [2], in assay [3], in assay [4], in assay [5] and in [6] was > 100 µM (inactive) throughout. Moreover, the GI50 in assay [7], in [8], in assay [9], in assay [10], in assay [11] and in assay [12] was > 100 µM (inactive) each time. In addition, the GI50 in assay [14], in assay [15], in assay [16], in assay [17], in [18] and in assay [19] was > 100 µM (inactive) throughout.

`C=C[C@]1(O)CCC[C@]2(C)C(=O)CCC12C` (some centres not stated): the GI50 in [1], in assay [2], in [3], in [4], in assay [5] and in [6] was > 100 µM (inactive) throughout. Moreover, the GI50 in assay [7], in assay [8], in assay [9], in [10], in [11] and in assay [12] was > 100 µM (inactive) in each case. Moreover, the GI50 in assay [13], in assay [14], in assay [15], in assay [17], in assay [18] and in assay [19] was > 100 µM (inactive) throughout.

As for `O=c1cc(-c2ccccc2F)[nH]c2cc3c(cc12)OCO3`, the GI50 in [1] is 0.0724 µM (active); in assay [2], 0.0512 µM (active); in assay [3] it was 0.19 µM (active); in assay [4] it was 0.118 µM (active); in [5] it was 0.0628 µM (active); in [6] it was 0.0528 µM (active). Moreover, the GI50 in assay [7] was < 0.01 µM (active); in [8], < 0.01 µM (active); in assay [9] it was 0.107 µM (active); in assay [10], 0.0402 µM (active); in assay [11], 0.0341 µM (active); in assay [12] it was 1.31 µM (inactive). For the same compound, the GI50 in assay [13] is 0.0631 µM (active); in assay [14], 0.1 µM (active); in assay [15], 0.281 µM (active); in [16] it was 0.247 µM (active); in assay [17], 0.0356 µM (active); in assay [18] it was > 100 µM (inactive). For the same compound, the GI50 in assay [19] is 0.0995 µM (active).

On to `O=C(NNCc1ccccc1O)c1ccccc1O`, for which the GI50 in [1] was 31.4 µM (inactive); in assay [2] it was 7.93 µM (inactive); in assay [3], 7.52 µM (inactive); in [4], 1.13 µM (inactive); in assay [5], 3.3 µM (inactive); in [6] it was 9.16 µM (inactive). In addition, the GI50 in [7] was 3.06 µM (inactive); in assay [8], 7.57 µM (inactive); in assay [10], 2.28 µM (inactive); in assay [11], 0.766 µM (active); in assay [12], 3.59 µM (inactive); in [13] it was 3.27 µM (inactive). For the same compound, the GI50 in [14] is 4.65 µM (inactive); in [15] it was 4.03 µM (inactive); in assay [16] it was 21.9 µM (inactive); in [17], 3.48 µM (inactive); in [18], 3.48 µM (inactive); in [19], 5.75 µM (inactive).
